For 21 compounds, IC50 results are on record in US20250340554A1, “5-Amino-1H-Pyrrolo[3,2-b]Pyridine-2-Carboxamide Derivatives as MTA-Cooperative Inhibitors of PRMT5” (BeOne Medicines I GmbH, priority 2023, published 2025).

Usually IC50 stands for the point on the concentration scale where inhibition reaches its midpoint. High values mean lower potency, low ones higher potency.

For one assay, the system named is HCT116-mock-RNA-KO. Description: Compounds cell killing in HCT116 isogenic pair (Cell Titer-Glo viability), mock-RNA-KO cells (MTAP wildtype). Format: cell-based. Particulars: Homo sapiens, HCT-116, 144 h, 6 days, 0-10 μM compound. The text has this: (§1) HCT116 cell line was obtained from ATCC (CCL-247). It has a mutation in codon 13 of the ras proto-oncogene and can be used as a positive control for PCR assays of mutation in this codon. HCT116-MTAP-KO was knocked-out-MTAP-gene based HCT116, and one single clone was passed for this assay. HCT116-mock-RNA-KO was knocked-out-mock-gene based HCT116 with MTAP wildtype genotype. The base medium for HCT116 isogenic pair is RPMI 1640, HEPES (Gibco, 22400105). To make the complete growth medium, add the following components to the base medium: fetal bovine serum to a final concentration of 10% (Gibco, 10099-141C). The cell line was grown in a humidified 5% CO2 atmosphere at 37° C. and regularly tested for the presence of mycoplasma with MycoAlert™ PLUS Mycoplasma Detection Kit (Lonza, LT07-710).
(§2) • Seed HCT116-mock-RNA-KO (400/well) or HCT116-MTAP-KO (400/well) cells into a 96-well plate (Greiner: 655090), 100 μL/well. • Incubate at 37° C., 5% CO2, overnight. • Add 50 μL fresh growth-medium containing serial dilution of compounds for a final compound concentration of 0-10 μM to each well. • Incubate at 37° C., 5% CO2, 6 days. • The cell viability detected by Cell Titer-Glo (Promega, G7573). Add 70 μL of CellTiter-Glo® reagent in each well. • Incubate at room temperature for 10 minutes to stabilize luminescent signal. • Analyze with Microplate Reader (TECAN, SPARK) and fit IC50 using Prism® 9.
A general note: ATP-based viability assays read luminescence as a measure of living cells.

Another assay relates to HCT116-MTAP-KO. Description: Compounds cell killing in HCT116 isogenic pair (Cell Titer-Glo viability), MTAP-KO cells. Particulars: Homo sapiens, HCT-116, 144 h, 6 days, 0-10 μM compound, * = more than 50% viability inhibition at tested concentration without a full curve. Type of assay: cell-based.
Description: as §1, §2

In the case of `Cc1cc2[nH]c(C(=O)N(Cc3ccc(-c4c(F)cccc4F)cn3)[C@@H]3CCCc4c(C5CC5)ccnc43)cc2nc1N` (stereo in doubt) [Example A6, 5-amino-N-(4-cyclopropyl-5,6,7,8-tetrahydroquinolin-8-yl)-N-((5-(2,6-difluorophenyl)pyridin-2-yl)methyl)-6-methyl-1H-pyrrolo[3,2-b]pyridine-2-carboxamide], the IC50 was 1490 nM in the assay on HCT116-mock-RNA-KO and less than 4.6 nM in the assay with HCT116-MTAP-KO.

For the compound `Cc1cc2[nH]c(C(=O)N(Cc3ccc(-c4c(F)cccc4F)cn3)[C@@H]3CCCc4cccnc43)cc2nc1N` [Example A1, (R)-5-amino-N-((5-(2,6-difluorophenyl)pyridin-2-yl)methyl)-6-methyl-N-(5,6,7,8-tetrahydroquinolin-8-yl)-1H-pyrrolo[3,2-b]pyridine-2-carboxamide], the IC50 in the assay on HCT116-mock-RNA-KO is 155 nM; in the assay with HCT116-MTAP-KO it was less than 0.5 nM.

In the case of `Cc1cc2[nH]c(C(=O)N(Cc3ccc(-c4ccccc4)cn3)[C@@H]3CCCc4cccnc43)cc2nc1N` [Example A2, (R)-5-amino-6-methyl-N-((5-phenylpyridin-2-yl)methyl)-N-(5,6,7,8-tetrahydroquinolin-8-yl)-1H-pyrrolo[3,2-b]pyridine-2-carboxamide], the IC50 was 486 nM in the assay with HCT116-mock-RNA-KO and less than 0.5 nM in the assay with HCT116-MTAP-KO.

Turning to `Cc1cc2[nH]c(C(=O)N(Cc3ccc(-c4c(F)cncc4F)cn3)[C@@H]3CCCc4cccnc43)cc2nc1N` [Example A3, (R)-5-amino-N-((3′,5′-difluoro-[3,4′-bipyridin]-6-yl)methyl)-6-methyl-N-(5,6,7,8-tetrahydroquinolin-8-yl)-1H-pyrrolo[3,2-b]pyridine-2-carboxamide], the IC50 with HCT116-mock-RNA-KO was 49 nM; in the assay with HCT116-MTAP-KO, 0.008 nM.

Consider `Cc1cc2[nH]c(C(=O)N(Cc3ccc(-c4c(C)cnn4C)cn3)[C@@H]3CCCc4cccnc43)cc2nc1N` [Example A4, (R)-5-amino-N-((5-(1,4-dimethyl-1H-pyrazol-5-yl)pyridin-2-yl)methyl)-6-methyl-N-(5,6,7,8-tetrahydroquinolin-8-yl)-1H-pyrrolo[3,2-b]pyridine-2-carboxamide], for which the IC50 with HCT116-mock-RNA-KO came out at 2360 nM; in the assay on HCT116-MTAP-KO, 30 nM.

For `Cc1cc2[nH]c(C(=O)N(Cc3ccc(-c4c(F)cccc4F)cn3)[C@@H]3CCCc4cccnc43)c(Br)c2nc1N` [Example A5, (R)-5-amino-3-bromo-N-((5-(2,6-difluorophenyl)pyridin-2-yl)methyl)-6-methyl-N-(5,6,7,8-tetrahydroquinolin-8-yl)-1H-pyrrolo[3,2-b]pyridine-2-carboxamide], the IC50 was 3340 nM in the assay with HCT116-mock-RNA-KO and 167 nM in the assay with HCT116-MTAP-KO.

Regarding `Cc1cc2[nH]c(C(=O)N(Cc3ccc(-c4c(F)cccc4F)cn3)C3CCCc4c(C(C)(C)O)ccnc43)cc2nc1N` (stereo not drawn) [Example A7, 5-amino-N-((5-(2,6-difluorophenyl)pyridin-2-yl)methyl)-N-(4-(2-hydroxypropan-2-yl)-5,6,7,8-tetrahydroquinolin-8-yl)-6-methyl-1H-pyrrolo[3,2-b]pyridine-2-carboxamide], the results for the IC50 in the assay with HCT116-mock-RNA-KO and in the assay with HCT116-MTAP-KO were 339 nM and less than 4.6 nM, respectively.

`Cc1cc2[nH]c(C(=O)N(Cc3cc(Cl)c(-c4ccccc4)cn3)[C@@H]3CCCc4cccnc43)cc2nc1N` [Example A8, (R)-5-amino-N-((4-chloro-5-phenylpyridin-2-yl)methyl)-6-methyl-N-(5,6,7,8-tetrahydroquinolin-8-yl)-1H-pyrrolo[3,2-b]pyridine-2-carboxamide]: the IC50 with HCT116-mock-RNA-KO is 2040 nM; in the assay on HCT116-MTAP-KO, less than 4.6 nM.

`Cc1cc2[nH]c(C(=O)N(Cc3ccc(-c4cn[nH]c4)c(C)n3)C3CCCc4cccnc43)cc2nc1N` (stereo not drawn) [Example A9, 5-amino-6-methyl-N-((6-methyl-5-(1H-pyrazol-4-yl)pyridin-2-yl)methyl)-N-(5,6,7,8-tetrahydroquinolin-8-yl)-1H-pyrrolo[3,2-b]pyridine-2-carboxamide]: the IC50 is 4180 nM in the assay with HCT116-mock-RNA-KO and 86 nM in the assay with HCT116-MTAP-KO.

`Cc1cc2[nH]c(C(=O)N(Cc3ccc(-c4c(Cl)cccc4Cl)cn3)C3CCCc4cccnc43)cc2nc1N` (stereo not drawn) [Example A10, 5-amino-N-((5-(2,6-dichlorophenyl)pyridin-2-yl)methyl)-6-methyl-N-(5,6,7,8-tetrahydroquinolin-8-yl)-1H-pyrrolo[3,2-b]pyridine-2-carboxamide]: the IC50 with HCT116-mock-RNA-KO was 3480 nM; in the assay on HCT116-MTAP-KO, 217 nM.

On to `Cc1cc2[nH]c(C(=O)N(Cc3ccc(-c4c(F)c(F)c(F)c(F)c4F)cn3)[C@@H]3CCCc4cccnc43)cc2nc1N` [Example A11, (R)-5-amino-6-methyl-N-((5-(perfluorophenyl)pyridin-2-yl)methyl)-N-(5,6,7,8-tetrahydroquinolin-8-yl)-1H-pyrrolo[3,2-b]pyridine-2-carboxamide], for which the concentration for half-maximal inhibition (IC50) in the assay on HCT116-mock-RNA-KO was 1470 nM; in the assay on HCT116-MTAP-KO, less than 4.6 nM.

With `Nc1nc2cc(C(=O)N(Cc3ccc(-c4c(F)cccc4F)cn3)[C@@H]3CCCc4cccnc43)[nH]c2cc1Br` [Example A12, (R)-5-amino-6-bromo-N-((5-(2,6-difluorophenyl)pyridin-2-yl)methyl)-N-(5,6,7,8-tetrahydroquinolin-8-yl)-1H-pyrrolo[3,2-b]pyridine-2-carboxamide], the figures for the IC50 in the assay on HCT116-mock-RNA-KO and in the assay on HCT116-MTAP-KO were 661 nM and less than 4.6 nM, respectively.

With `Cc1cc2[nH]c(C(=O)N(Cc3ccc(-c4ncnn4C)cn3)[C@@H]3CCCc4cccnc43)cc2nc1N` [Example A13, (R)-5-amino-6-methyl-N-((5-(1-methyl-1H-1,2,4-triazol-5-yl)pyridin-2-yl)methyl)-N-(5,6,7,8-tetrahydroquinolin-8-yl)-1H-pyrrolo[3,2-b]pyridine-2-carboxamide], the results for the IC50 with HCT116-mock-RNA-KO and in the assay on HCT116-MTAP-KO were more than 10000 nM and 83 nM, respectively.

Turning to `Cc1cc2[nH]c(C(=O)N(Cc3ccc(-c4c(F)cccc4Cl)cn3)C3CCCc4cccnc43)cc2nc1N` (stereo not drawn) [Example A14, 5-amino-N-((5-(2-chloro-6-fluorophenyl)pyridin-2-yl)methyl)-6-methyl-N-(5,6,7,8-tetrahydroquinolin-8-yl)-1H-pyrrolo[3,2-b]pyridine-2-carboxamide], the results for the IC50 in the assay on HCT116-mock-RNA-KO and in the assay on HCT116-MTAP-KO were 1120 nM and 2.9 nM, respectively.

Consider `Cc1cc2[nH]c(C(=O)N(Cc3ccc(-c4c(F)cccc4C#N)cn3)C3CCCc4cccnc43)cc2nc1N` (stereo not drawn) [Example A15, 5-amino-N-((5-(2-cyano-6-fluorophenyl)pyridin-2-yl)methyl)-6-methyl-N-(5,6,7,8-tetrahydroquinolin-8-yl)-1H-pyrrolo[3,2-b]pyridine-2-carboxamide], for which the figures for the IC50 with HCT116-mock-RNA-KO and in the assay with HCT116-MTAP-KO were 424 nM and 4.3 nM, respectively.

For `Cc1cc2[nH]c(C(=O)N(Cc3ccc(-c4ccccn4)cn3)C3CCCc4cccnc43)cc2nc1N` (stereo not drawn) [Example A16, N-([2,3′-bipyridin]-6′-ylmethyl)-5-amino-6-methyl-N-(5,6,7,8-tetrahydroquinolin-8-yl)-1H-pyrrolo[3,2-b]pyridine-2-carboxamide], the IC50 in the assay on HCT116-mock-RNA-KO turned out to be 1640 nM; in the assay with HCT116-MTAP-KO, 17 nM.

As to `Cc1cc2[nH]c(C(=O)N(Cc3ccc(-c4c(F)cccc4F)cn3)[C@@H]3CCCc4cccnc43)c(F)c2nc1N` [Example A17, (R)-5-amino-N-((5-(2,6-difluorophenyl)pyridin-2-yl)methyl)-3-fluoro-6-methyl-N-(5,6,7,8-tetrahydroquinolin-8-yl)-1H-pyrrolo[3,2-b]pyridine-2-carboxamide], the IC50 is 2840 nM in the assay on HCT116-mock-RNA-KO and 66 nM with HCT116-MTAP-KO.

As to `Cc1cc2[nH]c(C(=O)N(Cc3ccc(-c4c(C)cnn4C)cc3F)C3CCCc4cccnc43)cc2nc1N` (stereo not drawn) [Example A18, 5-amino-N-(4-(1,4-dimethyl-1H-pyrazol-5-yl)-2-fluorobenzyl)-6-methyl-N-(5,6,7,8-tetrahydroquinolin-8-yl)-1H-pyrrolo[3,2-b]pyridine-2-carboxamide], the IC50 with HCT116-mock-RNA-KO was 2580 nM; in the assay on HCT116-MTAP-KO it was 21 nM.

For `Cc1cc2[nH]c(C(=O)N(Cc3ccc(-c4c(F)cccc4F)cn3)[C@@H]3CCCc4cccnc43)c(I)c2nc1N` [Example A19, (R)-5-amino-N-((5-(2,6-difluorophenyl)pyridin-2-yl)methyl)-3-iodo-6-methyl-N-(5,6,7,8-tetrahydroquinolin-8-yl)-1H-pyrrolo[3,2-b]pyridine-2-carboxamide], the IC50 in the assay on HCT116-mock-RNA-KO is 288 nM; in the assay on HCT116-MTAP-KO it was less than 4.6 nM.

In the case of `Cc1cc2[nH]c(C(=O)N(Cc3ccc(-c4ccccc4)cn3)C3CCC3)cc2nc1N` [Example B1, 5-amino-N-cyclobutyl-6-methyl-N-((5-phenylpyridin-2-yl)methyl)-1H-pyrrolo[3,2-b]pyridine-2-carboxamide], the IC50 in the assay with HCT116-mock-RNA-KO was more than 10000 nM; with HCT116-MTAP-KO, 359 nM.

`COCC(COC)N(Cc1ccc(-c2c(F)cccc2F)cn1)C(=O)c1cc2nc(N)c(C)cc2[nH]1` [Example B2, 5-amino-N-((5-(2,6-difluorophenyl)pyridin-2-yl)methyl)-N-(1,3-dimethoxypropan-2-yl)-6-methyl-1H-pyrrolo[3,2-b]pyridine-2-carboxamide]: the IC50 was determined as 1220 nM in the assay with HCT116-mock-RNA-KO and 5.5 nM in the assay on HCT116-MTAP-KO.
